# Oligonucleotides are written 5' to 3', each unit as a sugar letter and its base; * is a phosphorothioate linkage, no mark a phosphodiester; rarer units and linkages stand in square brackets, end groups in braces. Plain capitals give the bases only. d = 2'-deoxy (DNA); r = 2'-OH (RNA)
# Target: UBE2I
# Test: reporter assay of Huesken 2005
# Settings: siRNA
# Further: test concentration or dose not given here.
row,Substance,normalised inhibition (eCFP-eYFP dual reporter)
1,sense rArCrCrArArArArUrGrUrArArArUrUrCrGrArAdTdT / antisense rUrUrCrGrArArUrUrUrArCrArUrUrUrUrGrGrUdGdG,86.4%
2,sense rArCrCrArArArUrArUrCrCrArArGrArCrCrCrAdTdT / antisense rUrGrGrGrUrCrUrUrGrGrArUrArUrUrUrGrGrUdTdC,83.9%
3,sense rArCrCrArUrUrArUrUrUrCrArCrCrCrGrArArUdTdT / antisense rArUrUrCrGrGrGrUrGrArArArUrArArUrGrGrUdGdG,88.3%
4,sense rArCrCrCrArUrUrUrGrGrUrUrUrCrGrUrGrGrCdTdT / antisense rGrCrCrArCrGrArArArCrCrArArArUrGrGrGrUdGdG,56.9%
5,sense rArCrCrUrCrArUrGrArArCrUrGrGrGrArGrUrGdTdT / antisense rCrArCrUrCrCrCrArGrUrUrCrArUrGrArGrGrUdTdC,58.8%
6,sense rArGrArArArGrGrGrArCrUrCrCrGrUrGrGrGrAdTdT / antisense rUrCrCrCrArCrGrGrArGrUrCrCrCrUrUrUrCrUdTdT,63.1%
7,sense rArGrArCrCrArCrCrCrArUrUrUrGrGrUrUrUrCdTdT / antisense rGrArArArCrCrArArArUrGrGrGrUrGrGrUrCrUdTdT,79.8%
8,sense rArGrArUrCrCrUrArUrUrArGrGrArArUrArCrAdTdT / antisense rUrGrUrArUrUrCrCrUrArArUrArGrGrArUrCrUdGdT,90.4%
9,sense rArGrArUrGrArUrUrArUrCrCrArUrCrUrUrCrGdTdT / antisense rCrGrArArGrArUrGrGrArUrArArUrCrArUrCrUdTdT,52.7%
10,sense rArGrCrCrArUrCrArCrArArUrCrArArArCrArGdTdT / antisense rCrUrGrUrUrUrGrArUrUrGrUrGrArUrGrGrCrUdGdG,60.1%
11,sense rArGrCrUrCrArArGrCrArGrArGrGrCrCrUrArCdTdT / antisense rGrUrArGrGrCrCrUrCrUrGrCrUrUrGrArGrCrUdGdG,89.5%
12,sense rArGrGrGrArCrUrCrCrGrUrGrGrGrArArGrGrAdTdT / antisense rUrCrCrUrUrCrCrCrArCrGrGrArGrUrCrCrCrUdTdT,72.1%
13,sense rArUrArCrArGrGrArArCrUrUrCrUrArArArUrGdTdT / antisense rCrArUrUrUrArGrArArGrUrUrCrCrUrGrUrArUdTdC,52.1%
14,sense rArUrGrUrArArArUrUrCrGrArArCrCrArCrCrAdTdT / antisense rUrGrGrUrGrGrUrUrCrGrArArUrUrUrArCrArUdTdT,75%
15,sense rArUrUrCrCrArGrGrArArArGrArArArGrGrGrAdTdT / antisense rUrCrCrCrUrUrUrCrUrUrUrCrCrUrGrGrArArUdGdG,83.9%
16,sense rArUrUrCrGrArArCrCrArCrCrArUrUrArUrUrUdTdT / antisense rArArArUrArArUrGrGrUrGrGrUrUrCrGrArArUdTdT,81%
17,sense rArUrUrUrGrGrUrUrUrCrGrUrGrGrCrUrGrUrCdTdT / antisense rGrArCrArGrCrCrArCrGrArArArCrCrArArArUdGdG,51.6%
18,sense rCrArArGrArCrCrCrArGrCrUrCrArArGrCrArGdTdT / antisense rCrUrGrCrUrUrGrArGrCrUrGrGrGrUrCrUrUrGdGdA,75.8%
19,sense rCrArCrArArUrCrArArArCrArGrArUrCrCrUrAdTdT / antisense rUrArGrGrArUrCrUrGrUrUrUrGrArUrUrGrUrGdAdT,87.4%
20,sense rCrArCrCrCrArUrUrUrGrGrUrUrUrCrGrUrGrGdTdT / antisense rCrCrArCrGrArArArCrCrArArArUrGrGrGrUrGdGdT,85.4%
21,sense rCrArGrArGrGrCrCrUrArCrArCrGrArUrUrUrAdTdT / antisense rUrArArArUrCrGrUrGrUrArGrGrCrCrUrCrUrGdCdT,83.8%
22,sense rCrArGrArUrCrCrUrArUrUrArGrGrArArUrArCdTdT / antisense rGrUrArUrUrCrCrUrArArUrArGrGrArUrCrUrGdTdT,74.4%
23,sense rCrArGrUrGrUrGrCrCrUrGrUrCrCrArUrCrUrUdTdT / antisense rArArGrArUrGrGrArCrArGrGrCrArCrArCrUrGdTdC,80.1%
24,sense rCrCrArGrCrCrArUrCrArCrArArUrCrArArArCdTdT / antisense rGrUrUrUrGrArUrUrGrUrGrArUrGrGrCrUrGrGdCdC,56%
25,sense rCrCrArGrGrArArArGrArArArGrGrGrArCrUrCdTdT / antisense rGrArGrUrCrCrCrUrUrUrCrUrUrUrCrCrUrGrGdAdA,54.9%
26,sense rCrCrCrGrArUrGrGrCrArCrGrArUrGrArArCrCdTdT / antisense rGrGrUrUrCrArUrCrGrUrGrCrCrArUrCrGrGrGdAdT,55%

row,Substance,normalised inhibition (eCFP-eYFP dual reporter)
1,sense rCrCrGrArUrGrGrCrArCrGrArUrGrArArCrCrUdTdT / antisense rArGrGrUrUrCrArUrCrGrUrGrCrCrArUrCrGrGdGdA,81.8%
2,sense rCrCrUrCrArUrGrArArCrUrGrGrGrArGrUrGrCdTdT / antisense rGrCrArCrUrCrCrCrArGrUrUrCrArUrGrArGrGdTdT,72.2%
3,sense rCrCrUrUrCrGrGrGrGrArCrArGrUrGrUrGrCrCdTdT / antisense rGrGrCrArCrArCrUrGrUrCrCrCrCrGrArArGrGdGdT,51.1%
4,sense rCrGrArArUrGrUrGrUrArCrCrCrUrUrCrGrGrGdTdT / antisense rCrCrCrGrArArGrGrGrUrArCrArCrArUrUrCrGdGdG,45.1%
5,sense rCrGrArUrGrArArCrCrUrCrArUrGrArArCrUrGdTdT / antisense rCrArGrUrUrCrArUrGrArGrGrUrUrCrArUrCrGdTdG,78.2%
6,sense rCrGrGrArUrGrCrUrUrUrUrCrArArArGrArUrGdTdT / antisense rCrArUrCrUrUrUrGrArArArArGrCrArUrCrCrGdTdA,87.3%
7,sense rCrUrUrCrUrArArArUrGrArArCrCrArArArUrAdTdT / antisense rUrArUrUrUrGrGrUrUrCrArUrUrUrArGrArArGdTdT,88.8%
8,sense rGrArArArGrArArArGrGrGrArCrUrCrCrGrUrGdTdT / antisense rCrArCrGrGrArGrUrCrCrCrUrUrUrCrUrUrUrCdCdT,53.1%
9,sense rGrArArArGrGrGrArCrUrCrCrGrUrGrGrGrArAdTdT / antisense rUrUrCrCrCrArCrGrGrArGrUrCrCrCrUrUrUrCdTdT,89.3%
10,sense rGrArGrGrArGrGrArCrArArGrGrArCrUrGrGrAdTdT / antisense rUrCrCrArGrUrCrCrUrUrGrUrCrCrUrCrCrUrCdTdA,70.5%
11,sense rGrArGrGrCrUrUrGrUrUrUrArArArCrUrArCrGdTdT / antisense rCrGrUrArGrUrUrUrArArArCrArArGrCrCrUrCdCdT,73.2%
12,sense rGrArGrUrGrCrGrCrCrArUrUrCrCrArGrGrArAdTdT / antisense rUrUrCrCrUrGrGrArArUrGrGrCrGrCrArCrUrCdCdC,72.6%
13,sense rGrCrArCrGrArUrGrArArCrCrUrCrArUrGrArAdTdT / antisense rUrUrCrArUrGrArGrGrUrUrCrArUrCrGrUrGrCdCdA,84.4%
14,sense rGrCrCrUrArCrArCrGrArUrUrUrArCrUrGrCrCdTdT / antisense rGrGrCrArGrUrArArArUrCrGrUrGrUrArGrGrCdCdT,67.8%
15,sense rGrCrUrUrGrUrUrUrArArArCrUrArCrGrGrArUdTdT / antisense rArUrCrCrGrUrArGrUrUrUrArArArCrArArGrCdCdT,92.2%
16,sense rGrGrArCrArArGrGrArCrUrGrGrArGrGrCrCrAdTdT / antisense rUrGrGrCrCrUrCrCrArGrUrCrCrUrUrGrUrCrCdTdC,85.9%
17,sense rGrGrArGrGrCrUrUrGrUrUrUrArArArCrUrArCdTdT / antisense rGrUrArGrUrUrUrArArArCrArArGrCrCrUrCrCdTdT,82.5%
18,sense rGrGrGrGrArCrArGrUrGrUrGrCrCrUrGrUrCrCdTdT / antisense rGrGrArCrArGrGrCrArCrArCrUrGrUrCrCrCrCdGdA,47.8%
19,sense rGrUrArArArUrUrCrGrArArCrCrArCrCrArUrUdTdT / antisense rArArUrGrGrUrGrGrUrUrCrGrArArUrUrUrArCdAdT,89.2%
20,sense rUrArCrArCrGrArUrUrUrArCrUrGrCrCrArArAdTdT / antisense rUrUrUrGrGrCrArGrUrArArArUrCrGrUrGrUrAdGdG,92.9%
21,sense rUrArUrUrArGrGrArArUrArCrArGrGrArArCrUdTdT / antisense rArGrUrUrCrCrUrGrUrArUrUrCrCrUrArArUrAdGdG,71.9%
22,sense rUrArUrUrUrCrArCrCrCrGrArArUrGrUrGrUrAdTdT / antisense rUrArCrArCrArUrUrCrGrGrGrUrGrArArArUrAdAdT,78.9%
23,sense rUrCrCrCrGrArUrGrGrCrArCrGrArUrGrArArCdTdT / antisense rGrUrUrCrArUrCrGrUrGrCrCrArUrCrGrGrGrAdTdT,48.8%
24,sense rUrCrCrGrUrGrGrGrArArGrGrArGrGrCrUrUrGdTdT / antisense rCrArArGrCrCrUrCrCrUrUrCrCrCrArCrGrGrAdGdT,52.4%
25,sense rUrGrArUrUrArUrCrCrArUrCrUrUrCrGrCrCrAdTdT / antisense rUrGrGrCrGrArArGrArUrGrGrArUrArArUrCrAdTdC,59%
26,sense rUrGrGrGrArArGrGrArGrGrCrUrUrGrUrUrUrAdTdT / antisense rUrArArArCrArArGrCrCrUrCrCrUrUrCrCrCrAdCdG,78%

# — the OligoGym collection
